Source: patent EP2649091B1, “IMMUNE RESTRICTED PEPTIDES WITH INCREASED EFFICACY” (Stichting Het Nederlands Kanker Instituut, priority 2010, dated 2012)
“And” between values parts separate entries of the source, which are not always exact repeats. Identical values can stand only once. am‑phg = not defined here; PRG = not defined here

Experiments:
[1] = system: T cell line specific for LLFGLALIEV; assay: T cell activation, FACS based interferon-gamma production assay, Mage-C2 LLFGLALIEV
From the text: FACS was employed to obtain results.
T cell activation was quantified using the FACS based interferon-gamma production assay as materials and methods section. Table 10 HLA binding and T cell activation of modified Melanoma-associated protein C2 (pp-qq) epitopes used in vaccination studies.

[2] = system: LLFGLALIEV-specific CD8+ T cells; assay: Mouse vaccination study, tetramer analysis of blood, LLFGLALIEV; format: in vivo; details: mice vaccinated with 100 µg peptide with IFA and CpG, all times after day one, versus LLFGLALIEV vaccinated mice
From the text: (§1) Three mouse vaccination studies were done using three different wild-type epitopes. In all cases, mice were vaccinated with the peptide supplemented with incomplete freunds ajuvant (IFA) and CpG. Analysis was done by analyzing blood samples with tetramers loaded with wild-type peptide in all cases.
(§2) This was done for both groups of mice.

[3] = system: […]-specific CD8+ T cells; assay: Mouse vaccination study, […] tetramer analysis of blood; format: in vivo; details: mice vaccinated with 5 µg peptide with IFA and CpG, booster at day 97; compared with […] vaccinated mice, at all times
Experimental: as §1
(§3) Two groups of three mice were vaccinated with 5 µg of either […] or [am-phg][NVA]AGIGILT[PRG]. At day 97, mice were administred a second dose (booster). At several timepoints blood was taken and tested for […]-specific CD8+ T cells using tetramers loaded with […]. This was done for both groups of mice.

[4] = system: LLFGLALIEV-specific CD8+ T cells; assay: Mouse vaccination study, LLFGLALIEV tetramer analysis of blood; format: in vivo; details: mice vaccinated with 100 µg peptide with IFA and CpG; compared with LLFGLALIEV vaccinated mice, at all times after day one
From the text: as §1, §2

[5] = system: HLA-A2::Mart-1(26-35) reactive T cells stimulated by T2 cells; assay: T cell activation time course assay, IFNγ production (FACS), Mart-1 epitope; format: cell-based; details: for % CD8+ T cells producing IFN-γ 0H / Geometric mean IFN-γ in arbitrary fluorescence units 0H: time point 0H (basal); for % CD8+ T cells producing IFN-γ 2H / Geometric mean IFN-γ in arbitrary fluorescence units 2H: time point 2H; for % CD8+ T cells producing IFN-γ 4H / Geometric mean IFN-γ in arbitrary fluorescence units 4H: time point 4H; for % CD8+ T cells producing IFN-γ 24H / Geometric mean IFN-γ in arbitrary fluorescence units 24H: time point 24H; for % CD8+ T cells producing IFN-γ 24H / Geometric mean IFN-γ in arbitrary fluorescence units 24H / % CD8+ T cells producing IFN-γ 48H / Geometric mean IFN-γ in arbitrary fluorescence units 48H: free peptide washed away; for % CD8+ T cells producing IFN-γ 48H / Geometric mean IFN-γ in arbitrary fluorescence units 48H: time point 48H
HLA-A0201 = HLA-A0201 (Homo sapiens, UniProt P04439, D140Y/D185E/D98H/E176V/E277Q/G131W/G231S/I119V/I121R/I166T/I218V/L300P/L318F/N151K/N90K/P208A/P217A/Q86G/Q94H/R138H/R169H/T345S); format: binding
[6] = system: […]-specific CD8+ T cells; assay: Mouse vaccination study, tetramer analysis of blood, […]; format: in vivo; details: mice vaccinated with 5 µg peptide with IFA and CpG, booster at day 97, several timepoints, versus […] vaccinated mice
Experimental: as §1, §3

[PHG][2-AOC]FGLALIEV [listing 1 of 2 here]
% Positive TCR recognition % TCR [1]: 13.7% | Geometric mean in arbitrary fluorescence units Geo TCR [1]: 108 arbitrary fluorescence units | LLFGLALIEV-specific CD8+ T cells (specific T cell numbers) [2]: higher

[am-phg][NVA]AGIGILT[PRG] ({am‑phg-NVA}-AGIGILT-{PRG}; reading uncertain; also: printed as [am-phg][NVA]AGIGILT[PRG])
[…]-specific CD8+ T cells in blood [3]: specific T cell numbers were higher

[PHG][2-AOC]FGLALIEV [listing 2 of 2 here]
LLFGLALIEV-specific CD8+ T cells in blood [4]: specific T cell numbers were higher

[am-phg][NVA]AGIGILT[PRG]
% CD8+ T cells producing IFN-γ 0H ([5]; peptide 0.5 pM): 0% | Geometric mean IFN-γ in arbitrary fluorescence units 0H ([5]; peptide 0.5 pM): 141 arbitrary fluorescence units | % CD8+ T cells producing IFN-γ 2H ([5]; peptide 0.5 pM): 25% | Geometric mean IFN-γ in arbitrary fluorescence units 2H ([5]; peptide 0.5 pM): 197 arbitrary fluorescence units | % CD8+ T cells producing IFN-γ 4H ([5]; peptide 0.5 pM): 30% | Geometric mean IFN-γ in arbitrary fluorescence units 4H ([5]; peptide 0.5 pM): 342 arbitrary fluorescence units | % CD8+ T cells producing IFN-γ 24H ([5]; peptide 0.5 pM): 16% | Geometric mean IFN-γ in arbitrary fluorescence units 24H ([5]; peptide 0.5 pM): 165 arbitrary fluorescence units | % CD8+ T cells producing IFN-γ 48H ([5]; peptide 0.5 pM): 3% | Geometric mean IFN-γ in arbitrary fluorescence units 48H ([5]; peptide 0.5 pM): 105 arbitrary fluorescence units | % CD8+ T cells producing IFN-γ 0H ([5]; peptide 50 pM): 0% | Geometric mean IFN-γ in arbitrary fluorescence units 0H ([5]; peptide 50 pM): 110 arbitrary fluorescence units | % CD8+ T cells producing IFN-γ 2H ([5]; peptide 50 pM): 28% | Geometric mean IFN-γ in arbitrary fluorescence units 2H ([5]; peptide 50 pM): 252 arbitrary fluorescence units | % CD8+ T cells producing IFN-γ 4H ([5]; peptide 50 pM): 32% | Geometric mean IFN-γ in arbitrary fluorescence units 4H ([5]; peptide 50 pM): 550 arbitrary fluorescence units | % CD8+ T cells producing IFN-γ 24H ([5]; peptide 50 pM): 28% | Geometric mean IFN-γ in arbitrary fluorescence units 24H ([5]; peptide 50 pM): 344 arbitrary fluorescence units | % CD8+ T cells producing IFN-γ 48H ([5]; peptide 50 pM): 18% | Geometric mean IFN-γ in arbitrary fluorescence units 48H ([5]; peptide 50 pM): 222 arbitrary fluorescence units | % inhibition at T=4H and T=24H FP 4h (HLA-A0201): 67% | % inhibition at T=4H and T=24H FP 24h (HLA-A0201): 64% | IC50 Ratio (HLA-A0201): 8.3 and 8 | […]-specific CD8+ T cells (specific T cell numbers) [6]: higher
